Reference: US11306100B2, “Spirooxindole compounds as GSK3B inhibitors and process for preparation thereof” (COUNCIL OF SCIENTIFIC & INDUSTRIAL RESEARCH, priority 2017, dated 2022)

Columns and labels:
PANC-1 cells = assay: Colony formation (soft agar, clonogenic) assay; format: cell-based
Method: To determine the efficiency of GSK3β inhibitors in combination with the TRIAL on anchorage independent growth of PANC-1 cells soft agar assay were performed. The base agar (0.5%) was prepared by mixing equal amounts of 1% agar with 2× media (20% FBS and 2× antibiotics) filled in 6-well plate. Simultaneously, PANC-1 cells (14000/well) mixed with 2× media containing different concentrations of identified compounds alone or in combination with TRAIL mixed with 0.7% of sterile agar to achieve final concentration of […] top agar. The cell suspension was spread on solidified base agar. Then the plates were incubated in CO2 incubator for 14 days and the cells were fed with fresh media containing respective concentration and combination of TRIAL every 3 days. Upon termination (after 14 days of incubation) plates were stained with 0.005% of crystal violet for 1 h and excess stain was removed by washing with MQ. The number of blue colonies were counted using olympus Xi71 microscope.

recombinant GSK3β = recombinant GSK3β (Homo sapiens, UniProt P49841); assay: ADP-Glo kinase assay of GSK3β activity; format: biochemical; settings: for IC50: GSK3β kinase activity, 2 μM ATP
Method: Activity of recombinant GSK3β is measured using ADP-Glo Kinase assay according to supplier's standard protocol with minor modifications in 384 well format. Briefly, kinase reaction mixture was prepared by adding […] of recombinant enzyme, 2 μM ATP, 1 μg of enzyme substrate along with test compound or DMSO to a final volume of 5 μl. The kinase reaction was performed by incubating the mixture at room temperature for 17 mins. To correct reaction back ground a substrate blank reaction was also performed. ADP glow reagent (equal volume to reaction mixture) was added to the reaction mixture to deplete any unused ATP added to the kinase reaction and incubated at further 40 min at 27° C. Then 10 μl of kinase detection reagent was added followed by incubation for 30 min at 27° C. to convert ADP to ATP and introduce luciferase to measure kinase activity. The luminescence was measured using luminometer (Perkin Elmer) which is directly proportional to ADP generated in kinase reaction. To determine the amount of ADP produced in kinase reaction and calculate specific activity of the enzyme, a conversion curve is prepared by serial dilution of ADP and ATP mixture. Specific activity of the GSK3β was calculated using the following equation. (ADP(kinase reaction)−ADP(substrate blank)) in mmol)/(Reaction time in min)×(GSK3β in mg).

[1] = system: NF-kB activity in PANC-1 cells; assay: NFkB luciferase reporter assay; format: cell-based; settings: 48 h treatment, dose dependent
Method: In order to evaluate the effect of GSK3β inhibition on NF-kB activity, a reporter assay has been performed in the presence of identified inhibitors. To perform reporter assays, PANC-1 cells were cultured in a 48 well plate (16000 cells/well) overnight. Following day, cells were transfected with appropriate amount NF-kB reporter construct using lipofectamine 2000 as per manufacturer's protocol. After 16 hrs of post transfection cells were treated with identified GSK3β inhibitors and positive controls. After 48 h of treatment, cells were harvested in directly 1×ccl buffer. For measuring luciferase activity, 5 μl of cell lysate was mixed with 20 μl of assay reagent containing substrate for luciferase in MTP well plate as per manufacturer's protocol. The luciferase activity was determined by measuring luminescence at wavelengths in multimode reader. The protein concentration of the lysates was estimated by Bradford assay to normalize luciferase activity with protein present in the lysates. Then the relative luciferase activity was calculated according to control cells treated with DMSO set to 1. All experiments were performed in triplicates and the mean values with ±SD are presented here.

[2] = system: cellular GSK3β signalling in PANC-1 cells; assay: Western blot of GSK3β signalling and NFkB target proteins in PANC-1 cells; format: cell-based; settings: for phosphorylation of GSK3β: PANC-1 cells treated with compound; for β-catenin level: PANC-1 cells versus control (DMSO); for BCL2 and XIAP levels: compound with TRAIL versus TRAIL alone or compound alone; for bcl2 and xiap expression: dose dependence of compound; for Cyclin D1 levels / phosphorylation of GSK3β (9th serine residue): in combination with TRAIL; for p-GS (phosphorylated glycogen synthase) level: increasing concentrations of compound, total GS unaffected
Method: The compounds inhibiting GSK3β activity in-vitro added to PANC-1 cells to determine their potential against intracellular GSK3β signalling pathways in cancer cells. Briefly, PANC-1 cells were plated in 60 mm plates (100,000 cells/4 mL) and cultured in the standard DMEM medium containing 10% serum. After culturing for 18 hrs, different concentrations of test compounds or standard controls prepared in DMSO were added to culture media to achieve final concentration 0 to 100 μM of compound to cells. Cells were further continued to grow for 48 h with constant supply of 5% CO2 in humid incubator. The time course (0 to 48 h) experiment was carried out simultaneously with fixed concentration of compound showing 50% growth inhibition. At the end of the experiments, all cells were scraped directly in cold PBS and washed for 3 times before lysis directly in 2D lysis buffer (8M urea, 2M thiourea, 4% CHAPS, 4 mM tris base and 65 mM DTT) for isolation of proteins to perform western blots. The protein concentration was determined by modified Bradford assay.
To perform western blot, protein extracts were separated on 12% SDS-PAGE and electrophoretically (1 mA/cm^2 membrane for 1 hr) transferred onto the nitrocellulose membrane by semi-dry method. After protein transfer, membrane was stained with Ponceau S solution (0.2% Ponceau S in 3% Trichloroacetic acid) for 2 min to see efficiency of electrophoretic transfer. The membrane was destained in ddH2O to visualize the protein bands and further destained with TBST (20 mM Tris, 138 mM NaCl, pH 7.6 and 0.1% Tween 20) for blotting. To avoid non-specific detection of target proteins, blotted membranes were blocked with BSA (3% BSA in TBST solution). All antibodies against specific protein targets of interest were purchased from Cell Signaling Technology, USA if not mentioned specifically. Then the blots were incubated with antibodies prepared in blocking buffer (1:1000 Antibody to blocking buffer dilution) for 18 h with constant shaking at 4° C. Three washing steps in PBS each for 5 mins removed the excess and non-specific antibodies. For visualization, blots were incubated with secondary antibody conjugated to either horseradish peroxidase or alkaline phosphatase [anti-(mouse IgG) or anti-(rabbit IgG), diluted 1:5000 in TBST] for 1 h at room temperature. After three washes in PBS, the reaction was developed either by addition of LumiGLO substrate (Cell Signaling Technology) followed by capturing on X-ray film or addition of chromogenic NBT (nitro-blue tetrazolium chloride) and BCIP (5-bromo-4-chloro-3′-indolyphosphate p-toluidine salt) substrate for alkaline phosphatase developing purple colored bands. The blots were scanned for densitometry performed using Image-J program.

[3] = compound in the presence of TRAIL 10 ηg/mL

Sequence of recombinant GSK3β (P49841 whole entry): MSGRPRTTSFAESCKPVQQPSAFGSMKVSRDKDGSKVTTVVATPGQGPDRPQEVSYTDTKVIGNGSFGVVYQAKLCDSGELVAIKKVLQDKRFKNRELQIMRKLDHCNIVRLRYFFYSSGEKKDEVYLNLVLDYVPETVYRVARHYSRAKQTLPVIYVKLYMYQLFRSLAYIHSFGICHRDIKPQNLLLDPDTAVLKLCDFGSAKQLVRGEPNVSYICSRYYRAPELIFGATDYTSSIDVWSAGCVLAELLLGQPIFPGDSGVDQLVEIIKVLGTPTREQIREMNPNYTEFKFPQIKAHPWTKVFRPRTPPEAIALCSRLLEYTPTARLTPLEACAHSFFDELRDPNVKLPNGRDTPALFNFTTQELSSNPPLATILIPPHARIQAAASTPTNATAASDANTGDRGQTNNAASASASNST

| Structure (SMILES) | inhibition of colony formation (PANC-1 cells; compound alone, 14 days) | inhibition of colony formation (PANC-1 cells; [3]) | inhibition of GSK3β in in-vitro kinase assays (recombinant GSK3β) | IC50 (recombinant GSK3β) | NFkB luciferase activity [1] | phosphorylation of GSK3β [2] | β-catenin level [2] | BCL2 and XIAP levels [2] | bcl2 and xiap expression [2] | Cyclin D1 levels [2] | phosphorylation of GSK3β (9th serine residue) [2] | p-GS (phosphorylated glycogen synthase) level [2] |
| --- | --- | --- | --- | --- | --- | --- | --- | --- | --- | --- | --- | --- |
| CCOC(=O)c1ccc(-c2ccccc2OCc2cn(CC3CC4(CO3)C(=O)Nc3ccccc34)nn2)nc1C (stereo not drawn) [AB-O, Ethyl 2-methyl-6-(2-((1-((2′-oxo-4,5-dihydro-2H-spiro[furan-3,3′-indoline]-5-yl)methyl)-1H-1,2,3-triazol-4-yl)methoxy)phenyl)nicotinate] | dose-dependent inhibition | more effective inhibition of colony formation | potent inhibition | 3.88 ± 0.01 µM | significantly decreased | significantly decreased | accumulation of β-catenin | synergistic effect | decreased in a dose dependent manner | significantly reduced | synergistic effect | significantly decreased |
| COc1ccccc1N1CCN(CC2CC3(CO2)C(=O)Nc2ccccc23)CC1 (stereo not drawn) [AB-U, 5-((4-(2-Methoxyphenyl)piperazin-1-yl)methyl)-4,5-dihydro-2H-spiro[furan-3,3′-indolin]-2′-one] | dose-dependent inhibition | more effective inhibition of colony formation | potent inhibition | 4.92 ± 0.13 µM | significantly decreased | significantly decreased | accumulation of β-catenin | synergistic effect | decreased in a dose dependent manner | significantly reduced | synergistic effect | significantly decreased |
